Experimental data reported in patent US6355799B1, “Substituted benzene compounds, process for their preparation, and herbicidal and defoliant compositions containing them” (ISK Americas Incorporated, priority 1997, dated 2002).

Columns and labels:
Assay type in all cases: in vivo
[1] = test system: redroot pigweed (Amaranthus retroflexus, AMARE); experiment: Pre-emerge test, greenhouse herbicide activity screening
Summary of the method: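 Herbicidal damage is scored 0 (none) to 100 (complete plant death) two weeks after a simulated field spray. Rates span 15–1000 g ai/ha, delivered in acetone at 187 l/ha. For post-emergence treatments, plants have 2–3 leaves and the spray carries 0.25% v/v non-ionic surfactant.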

[2] = test system: barnyardgrass (Echinochloa crus-galli, ECHCG); experiment: as above
Source text: (§1) A standard greenhouse herbicide activity screening system was used to evaluate the herbicidal efficacy and crop safety of these test compounds. Seven broadleaf weed species including redroot pigweed (Amaranthus retroflexus, AMARE, velvetleaf (Abutilon theophrasti, ABUTH), sicklepod (Cassia obtusifolia, CASOB), ivyleaf morningglory (Ipomoea hederacea, IPOHE), lambsquarters (Chenopodium album, CHEAL), common ragweed (Ambrosia artemisizfolia L., AMBEL), and cocklebur (Xanthium strumarium, XANST) were used as test species. Four grass weed species including green foxtail (Setaria viridis, SETVI), barnyardgrass (Echinochloa crus-galli, ECHCG), johnsongrass (Sorghum halepense, SORHA), and large crabgrass (Digitaria sanguinalis, DIGSA) were also used. In addition, three crop species, field corn (Zea mays L., var. Dekalb 535, CORN), soybean (Glycine max L., var. Pella 86, SOY), and is upland rice (Oryza sp., var. Tebonnet, RICE) were included.
(§2) All plants were grown in 10 cm square plastic pots which were filled with a sandy loam soil mix. For pre-emerge tests, seeds were planted one day prior to application of the test compounds. For post-emerge tests, seeds were planted 8-21 days prior to the test to allow emergence and good foliage development prior to application of the test substances. At the time of the post-emerge application, plants of all species were usually at the 2-3 leaf stage of development.
(§3) All test compounds Were dissolved in acetone and applied to the test units in a volume of 187 l /ha. Test materials were applied at rates ranging from 15 g ai/ha to 1000 g ai/ha using a track sprayer equipped with a TJ8001E even flow flat fan spray nozzle. Plants were arranged on a shelf so that the top of the canopy (post-emerge) or top of the soil surface (pre-emerge) was 40-45 cm below the nozzle. Pressurized air was used to force the test solution through the nozzle as it was mechanically advanced (via electrically driven chain drive) over the top of all test plants/pots. This application simulates a typical commercial field herbicide application.
(§4) In the post-emerge test, a commercial non-ionic surfactant was also included (0.25% v/v) to enhance wetting of the leaf surfaces of target plants. Immediately after application, test units of the pre-emerge applications were watered at the soil surface to incorporate the test materials. Subsequently, these test units were bottom-watered. Post-emerge test units were always bottom-watered.
(§5) At 14 days after application of the test materials, phytotoxicity ratings were recorded. A rating scale of 0-100 was used as previously described in Research Methods in Weed Science, 2nd edition, B. Truelove, Ed., Southern Weed Science Society, Auburn University, Auburn, Ala. 1977. Briefly, “0” corresponds to no damage and “100” corresponds to complete death of all plants in the test unit. This scale was used both to determine efficacy against weed species and damage to crop species. Herbicide activity data for various compounds of this invention, which are shown by compound No. in Tables 1-8, are shown in Tables 11 and 12.

[3] = test system: green foxtail (Setaria viridis, SETVI); experiment: as above
Source text: as §1, §2, §3, §4, §5

[4] = test system: ivyleaf morningglory (Ipomoea hederacea, IPOHE); experiment: as above
Source text: as §1, §2, §3, §4, §5

[5] = test system: lambsquarters (Chenopodium album, CHEAL); experiment: as above
Source text: as §1, §2, §3, §4, §5

[6] = test system: large crabgrass (Digitaria sanguinalis, DIGSA); experiment: as above
Source text: as §1, §2, §3, §4, §5

[7] = test system: sicklepod (Cassia obtusifolia, CASOB); experiment: as above
Source text: as §1, §2, §3, §4, §5

[8] = test system: velvetleaf (Abutilon theophrasti, ABUTH); experiment: as above
Source text: as §1, §2, §3, §4, §5

[9] = test system: field corn (Zea mays L., var. Dekalb 535, CORN); experiment: Pre-emerge test, crop safety
Summary of the method: (§6)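 Compounds in acetone were track-sprayed at 15-1000 g ai/ha (187 l/ha) on sandy loam pots: pre-emerge one day after seeding, post-emerge at 2-3 leaf stage with 0.25% v/v non-ionic surfactant. Phytotoxicity was rated 14 days later on a 0 (no damage) to 100 (complete death) scale.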

[10] = test system: upland rice (Oryza sp., var. Tebonnet, RICE); experiment: Pre-emerge test, crop safety
Summary of the method: as §6

[11] = test system: barnyardgrass (Echinochloa crus-galli, ECHCG); experiment: Post-emerge test, greenhouse herbicide activity screening; settings: post-emerge; for phytotoxicity rating ECHCG: 14 days after application, rating scale 0-100; for Post-emerge Herbicidal Activity ECHCG: phytotoxicity rating 0-100 at 14 days after application
Source text: as §1, §2, §3, §4, §5

[12] = test system: green foxtail (Setaria viridis, SETVI); experiment: as above; settings: post-emerge; for phytotoxicity rating SETVI: 14 days after application, rating scale 0-100; for Post-emerge Herbicidal Activity SETVI: phytotoxicity rating 0-100 at 14 days after application
Source text: as §1, §2, §3, §4, §5

[13] = test system: ivyleaf morningglory (Ipomoea hederacea, IPOHE); experiment: as above; settings: post-emerge; for phytotoxicity rating IPOHE: 14 days after application, rating scale 0-100; for Post-emerge Herbicidal Activity IPOHE: phytotoxicity rating 0-100 at 14 days after application
Source text: as §1, §2, §3, §4, §5

[14] = test system: lambsquarters (Chenopodium album, CHEAL); experiment: as above; settings: post-emerge; for phytotoxicity rating CHEAL: 14 days after application, rating scale 0-100; for Post-emerge Herbicidal Activity CHEAL: phytotoxicity rating 0-100 at 14 days after application
Source text: as §1, §2, §3, §4, §5

[15] = test system: large crabgrass (Digitaria sanguinalis, DIGSA); experiment: as above; settings: post-emerge; for phytotoxicity rating DIGSA: 14 days after application, rating scale 0-100; for Post-emerge Herbicidal Activity DIGSA: phytotoxicity rating 0-100 at 14 days after application
Source text: as §1, §2, §3, §4, §5

[16] = test system: redroot pigweed (Amaranthus retroflexus, AMARE); experiment: as above; settings: post-emerge; for phytotoxicity rating AMARE: 14 days after application; for Post-emerge Herbicidal Activity AMARE: phytotoxicity rating 0-100 at 14 days after application
Source text: as §1, §2, §3, §4, §5

[17] = test system: sicklepod (Cassia obtusifolia, CASOB); experiment: as above; settings: post-emerge; for phytotoxicity rating CASOB: 14 days after application, rating scale 0-100; for Post-emerge Herbicidal Activity CASOB: phytotoxicity rating 0-100 at 14 days after application
Source text: as §1, §2, §3, §4, §5

[18] = test system: velvetleaf (Abutilon theophrasti, ABUTH); experiment: as above; settings: post-emerge; for phytotoxicity rating ABUTH: 14 days after application, rating scale 0-100; for Post-emerge Herbicidal Activity ABUTH: phytotoxicity rating 0-100 at 14 days after application
Source text: as §1, §2, §3, §4, §5

[19] = test system: field corn (Zea mays L., var. Dekalb 535, CORN); experiment: Post-emerge test, crop safety; settings: post-emerge; for phytotoxicity rating CORN (crop damage): 14 days after application, rating scale 0-100; for Post-emerge Herbicidal Activity CORN: crop damage rating 0-100 at 14 days after application
Summary of the method: (§7)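 Each test used a mechanized track sprayer delivering 187 l/ha of acetone solution at 15–1000 g ai/ha. Post-emerge foliage at 2–3 leaves was treated with added 0.25% v/v non-ionic surfactant and bottom-watered only. Injury was assessed on day 14, where 100 means total kill.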

[20] = test system: upland rice (Oryza sp., var. Tebonnet, RICE); experiment: Post-emerge test, crop safety; settings: post-emerge; for phytotoxicity rating RICE (crop damage): 14 days after application, rating scale 0-100; for Post-emerge Herbicidal Activity RICE: crop damage rating 0-100 at 14 days after application
Summary of the method: as §7

[21] = 63 g ai/ha, phytotoxicity rating 0-100, 14 days after application
[22] = 250 g ai/ha, phytotoxicity rating 0-100, 14 days after application
[23] = 63 g ai/ha, crop damage rating 0-100, 14 days after application
[24] = 250 g ai/ha, crop damage rating 0-100, 14 days after application
[25] = pre-emerge, rate 63 g ai/ha, phytotoxicity rating 0-100 at 14 days after application
[26] = pre-emerge, rate 250 g ai/ha, phytotoxicity rating 0-100 at 14 days after application
[27] = crop damage, pre-emerge, rate 63 g ai/ha, phytotoxicity rating 0-100 at 14 days after application
[28] = crop damage, pre-emerge, rate 250 g ai/ha, phytotoxicity rating 0-100 at 14 days after application

COc1c(Cl)cc(F)c(-n2c(=O)cc(C(F)(F)F)n(C)c2=O)c1NC(=O)OC(C)c1ccccc1 (centres unmarked) [4-47]
Pre-emerge Herbicidal Activity AMARE [1, 21]: 70 | Pre-emerge Herbicidal Activity AMARE [1, 22]: 100 | Pre-emerge Herbicidal Activity ECHCG [2, 21]: 60 | Pre-emerge Herbicidal Activity ECHCG [2, 22]: 98 | Pre-emerge Herbicidal Activity SETVI [3, 21]: 80 | Pre-emerge Herbicidal Activity SETVI [3, 22]: 100 | Pre-emerge Herbicidal Activity IPOHE [4, 21]: 30 | Pre-emerge Herbicidal Activity IPOHE [4, 22]: 100 | Pre-emerge Herbicidal Activity CHEAL [5, 21]: 100 | Pre-emerge Herbicidal Activity CHEAL [5, 22]: 100 | Pre-emerge Herbicidal Activity DIGSA [6, 21]: 70 | Pre-emerge Herbicidal Activity DIGSA [6, 22]: 100 | Pre-emerge Herbicidal Activity CASOB [7, 21]: 0 | Pre-emerge Herbicidal Activity CASOB [7, 22]: 70 | Pre-emerge Herbicidal Activity ABUTH [8, 21]: 100 | Pre-emerge Herbicidal Activity ABUTH [8, 22]: 100 | Pre-emerge Herbicidal Activity CORN [9, 23]: 30 | Pre-emerge Herbicidal Activity CORN [9, 24]: 90 | Pre-emerge Herbicidal Activity RICE [10, 23]: 20 | Pre-emerge Herbicidal Activity RICE [10, 24]: 70 | phytotoxicity rating ECHCG ([11]; 63 g ai/ha): 30 | phytotoxicity rating ECHCG ([11]; 250 g ai/ha): 50 | phytotoxicity rating SETVI ([12]; 63 g ai/ha): 40 | phytotoxicity rating SETVI ([12]; 250 g ai/ha): 60 | phytotoxicity rating IPOHE ([13]; 63 g ai/ha): 85 | phytotoxicity rating IPOHE ([13]; 250 g ai/ha): 100 | phytotoxicity rating CHEAL ([14]; 63 g ai/ha): 100 | phytotoxicity rating CHEAL ([14]; 250 g ai/ha): 100 | phytotoxicity rating DIGSA ([15]; 63 g ai/ha): 40 | phytotoxicity rating DIGSA ([15]; 250 g ai/ha): 30 | phytotoxicity rating AMARE ([16]; 63 g ai/ha, rating scale 0-100 (0 no damage, 100 complete death)): 75 | phytotoxicity rating AMARE ([16]; 250 g ai/ha, rating scale 0-100): 95 | phytotoxicity rating CASOB ([17]; 63 g ai/ha): 100 | phytotoxicity rating CASOB ([17]; 250 g ai/ha): 100 | phytotoxicity rating ABUTH ([18]; 63 g ai/ha): 100 | phytotoxicity rating ABUTH ([18]; 250 g ai/ha): 10 | phytotoxicity rating CORN (crop damage) ([19]; 63 g ai/ha): 30 | phytotoxicity rating CORN (crop damage) ([19]; 250 g ai/ha): 65 | phytotoxicity rating RICE (crop damage) ([20]; 63 g ai/ha): 30 | phytotoxicity rating RICE (crop damage) ([20]; 250 g ai/ha): 60

Cc1c(Cl)cc(F)c(-n2c(=O)cc(C(F)(F)F)n(C)c2=O)c1NC(=O)OCc1cccc([N+](=O)[O-])c1 [4-67]
Pre-emerge Herbicidal Activity AMARE [1, 25]: 100 | Pre-emerge Herbicidal Activity AMARE [1, 26]: 100 | Pre-emerge Herbicidal Activity ECHCG [2, 25]: 40 | Pre-emerge Herbicidal Activity ECHCG [2, 26]: 80 | Pre-emerge Herbicidal Activity SETVI [3, 25]: 90 | Pre-emerge Herbicidal Activity SETVI [3, 26]: 100 | Pre-emerge Herbicidal Activity IPOHE [4, 25]: 80 | Pre-emerge Herbicidal Activity IPOHE [4, 26]: 90 | Pre-emerge Herbicidal Activity CHEAL [5, 25]: 100 | Pre-emerge Herbicidal Activity CHEAL [5, 26]: 100 | Pre-emerge Herbicidal Activity DIGSA [6, 25]: 100 | Pre-emerge Herbicidal Activity DIGSA [6, 26]: 100 | Pre-emerge Herbicidal Activity CASOB [7, 25]: 40 | Pre-emerge Herbicidal Activity CASOB [7, 26]: 60 | Pre-emerge Herbicidal Activity ABUTH [8, 25]: 100 | Pre-emerge Herbicidal Activity ABUTH [8, 26]: 100 | Pre-emerge Herbicidal Activity CORN [9, 27]: 5 | Pre-emerge Herbicidal Activity CORN [9, 28]: 15 | Pre-emerge Herbicidal Activity RICE [10, 27]: 60 | Pre-emerge Herbicidal Activity RICE [10, 28]: 40 | Post-emerge Herbicidal Activity ECHCG ([11]; 63 g ai/ha): 40 | Post-emerge Herbicidal Activity ECHCG ([11]; 250 g ai/ha): 70 | Post-emerge Herbicidal Activity SETVI ([12]; 63 g ai/ha): 90 | Post-emerge Herbicidal Activity SETVI ([12]; 250 g ai/ha): 90 | Post-emerge Herbicidal Activity IPOHE ([13]; 63 g ai/ha): 100 | Post-emerge Herbicidal Activity IPOHE ([13]; 250 g ai/ha): 100 | Post-emerge Herbicidal Activity CHEAL ([14]; 63 g ai/ha): 100 | Post-emerge Herbicidal Activity CHEAL ([14]; 250 g ai/ha): 100 | Post-emerge Herbicidal Activity DIGSA ([15]; 63 g ai/ha): 70 | Post-emerge Herbicidal Activity DIGSA ([15]; 250 g ai/ha): 80 | Post-emerge Herbicidal Activity AMARE ([16]; 63 g ai/ha): 100 | Post-emerge Herbicidal Activity AMARE ([16]; 250 g ai/ha): 100 | Post-emerge Herbicidal Activity CASOB ([17]; 63 g ai/ha): 100 | Post-emerge Herbicidal Activity CASOB ([17]; 250 g ai/ha): 100 | Post-emerge Herbicidal Activity ABUTH ([18]; 63 g ai/ha): 100 | Post-emerge Herbicidal Activity ABUTH ([18]; 250 g ai/ha): 100 | Post-emerge Herbicidal Activity CORN ([19]; 63 g ai/ha): 55 | Post-emerge Herbicidal Activity CORN ([19]; 250 g ai/ha): 70 | Post-emerge Herbicidal Activity RICE ([20]; 63 g ai/ha): 50 | Post-emerge Herbicidal Activity RICE ([20]; 250 g ai/ha): 70
